Test results published in patent US20240360133A1, “FUSED TRICYCLIC COMPOUND, PREPARATION METHOD THEREFOR AND APPLICATION THEREOF IN MEDICINE” (Jiangsu Hengrui Pharmaceuticals Co., Ltd., priority 2020, published 2024).
pIC50: −log10 of the molar value.

Experiments:
human TLR8 = molecular target: T1, human TLR8 (Homo sapiens, UniProt Q9NR97); assay: Inhibitory effect on human TLR8 pathway (HEK-Blue hTLR8 SEAP reporter); format: cell-based; conditions: HEK-Blue hTLR8 cells, 6 μM resiquimod, 20 h, SEAP OD620
T1 construct: host or cells: HEK-Blue hTLR8 (HEK293)
T1 sequence (Q9NR97 27-1041): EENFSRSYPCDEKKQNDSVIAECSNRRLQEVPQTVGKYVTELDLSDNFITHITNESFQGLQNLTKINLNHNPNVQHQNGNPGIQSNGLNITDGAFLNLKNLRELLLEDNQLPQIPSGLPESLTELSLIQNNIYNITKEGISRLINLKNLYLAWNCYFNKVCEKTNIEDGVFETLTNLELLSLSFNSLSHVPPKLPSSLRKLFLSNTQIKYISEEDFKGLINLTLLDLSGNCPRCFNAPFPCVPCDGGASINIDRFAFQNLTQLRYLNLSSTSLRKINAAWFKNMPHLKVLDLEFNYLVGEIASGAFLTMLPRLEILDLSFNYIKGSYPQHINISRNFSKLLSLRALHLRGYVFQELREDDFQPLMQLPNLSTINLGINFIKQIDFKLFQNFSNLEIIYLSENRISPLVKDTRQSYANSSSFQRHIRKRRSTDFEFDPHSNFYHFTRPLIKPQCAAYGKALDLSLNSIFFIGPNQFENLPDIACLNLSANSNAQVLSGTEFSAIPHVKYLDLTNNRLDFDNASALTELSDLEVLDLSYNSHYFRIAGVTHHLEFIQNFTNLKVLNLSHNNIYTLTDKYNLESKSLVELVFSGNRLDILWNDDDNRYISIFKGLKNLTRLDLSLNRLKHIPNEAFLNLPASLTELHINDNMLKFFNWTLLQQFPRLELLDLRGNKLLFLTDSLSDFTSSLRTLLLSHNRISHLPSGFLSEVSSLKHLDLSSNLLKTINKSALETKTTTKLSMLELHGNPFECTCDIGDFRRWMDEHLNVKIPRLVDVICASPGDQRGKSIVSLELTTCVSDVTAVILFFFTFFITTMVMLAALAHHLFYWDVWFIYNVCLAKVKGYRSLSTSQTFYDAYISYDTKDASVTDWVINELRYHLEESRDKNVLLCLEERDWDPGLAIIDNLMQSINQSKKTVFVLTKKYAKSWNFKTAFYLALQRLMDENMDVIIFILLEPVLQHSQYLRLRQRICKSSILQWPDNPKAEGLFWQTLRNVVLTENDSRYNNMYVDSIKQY
Procedure: (§1) • 1. HEK-Blue™ hTLR8 cell (Invivogen) • 2. Resiquimod (R848, Invivogen) • 3. Alkaline phosphatase detection medium (Quanti-Blue Detection, Invivogen) • 4. Blasticidin (Invivogen) • 5. Zeocin (Invivogen) • 6. Normocin (Invivogen) • 7. DMEM/HIGH Glucose (GE Healthcare) • 8. Fetal bovine serum (FBS, Gibco) • 9. Phosphate-buffered saline (Shanghai BasalMedia Technologies Co., Ltd.) • 10. Sterile purified water (made in-house by Shanghai Hengrui) • 11. 15 mL centrifuge tube (Corning) • 12. 96-well formulating plate (Corning) • 13. 96-well flat-bottom cell culture plate (Corning) • 14. Constant-temperature cell incubator (Thermo scientific) • 15. Constant-temperature incubator (Shanghai Yiheng Scientific Instruments Co., Ltd.) • 16. PHERAstar FS microplate reader (BMG Labtech)
(§2) HEK-Blue™ hTLR8 cells were purchased from Invivogen. These cells are HEK293 cells transfected with the human Toll-like receptor 8 (TLR8) gene and the secreted alkaline phosphatase reporter gene (SEAP). The alkaline phosphatase reporter gene (SEAP) is under the regulation of the IFN—P minimal promoter comprising 5 NF-kB and AP-1 binding sites. Upon activation of TLR8 with an agonist, SEAP secretion is induced via downstream NF-kB and AP-1. After addition of an antagonist compound, the pathway described above is inhibited, and SEAP secretion is reduced. The activity of the compounds for the TLR8 pathway was evaluated by measuring OD620 through the SEAP substrate.
(§3) 20 mM test compounds dissolved in 100% DMSO were serially diluted with 100% DMSO to 2000, 400, 80, 16, 3.2, 0.64, 0.128, 0.0256 μM, with blank wells containing 100% DMSO. The compounds and 100% DMSO were then 20-fold diluted in DMEM/HIGH glucose media containing 10% inactivated FBS (complete media, the same applies below). Resiquimod was diluted to 60 μM with sterile water. The 60 μM resiquimod dilution in sterile water was added to a 96-well cell culture plate at 20 μL/well. The above compounds diluted in complete media and 100% DMSO were then added at 20 μL/well to wells containing resiquimod, 20 μL of sterile water and 20 μL of 100% DMSO diluted in the complete medium were added to negative control wells.
(§4) HEK-Blue™ hTLR8 cells were cultured in a DMEM/HIGH glucose medium containing 10% inactivated FBS, 100 μg/mL Normocin, 10 μg/mL blasticidin, and 100 μg/mL Zeocin. Cells that were in a good state of growth and had grown to 70%-8% were collected. The growth medium was discarded, 5-10 mL of PBS pre-heated at 37° C. was added to wash the cells once, and 2-5 mL of pre-heated PBS was added. The cells were cultured at 37° C. for 1-2 min, dispersed by pipetting, transferred to a 15 mL centrifuge tube, and counted, and the cell density was adjusted to 4.8×10^5/mL with the complete medium. After density adjustment, 160 μL of the resulting cell suspension was added to the above 96-well cell culture plate to a final number of cells per well of 76,500/well. The final concentration of resiquimod was 6 μM, and the final concentrations of the test compounds were 10,000, 2000, 400, 80, 16, 3.2, 0.64, and 0.128 nM. The cells were cultured in a 37° C., 5% CO2 incubator for 20 h. Then 20 μL of the supernatant was added to 180 μL of the prepared alkaline phosphatase detection medium and incubated in the dark in a constant-temperature incubator at 37° C. for 120 min. The OD620 absorbance readings were taken on a microplate reader. The inhibition rate was calculated using the following formula: […]
Inhibition curves were plotted using Graphpad Prism software according to the concentrations of the compounds and the corresponding inhibition rates, and the concentrations of the compounds at which the inhibition rate reached 50%, i.e., IC50 values, were calculated and are shown in Table 2.

human TLR7 = molecular target: T2, human TLR7 (Homo sapiens, UniProt Q9NYK1); assay: Inhibitory effect on human TLR7 activation pathway (HEK-Blue hTLR7 SEAP reporter); format: cell-based; conditions: HEK-Blue hTLR7 cells, 1 μM resiquimod, 20 h, SEAP OD620
T2 construct: host or cells: HEK-Blue hTLR7 (HEK293)
T2 sequence (Q9NYK1 27-1049): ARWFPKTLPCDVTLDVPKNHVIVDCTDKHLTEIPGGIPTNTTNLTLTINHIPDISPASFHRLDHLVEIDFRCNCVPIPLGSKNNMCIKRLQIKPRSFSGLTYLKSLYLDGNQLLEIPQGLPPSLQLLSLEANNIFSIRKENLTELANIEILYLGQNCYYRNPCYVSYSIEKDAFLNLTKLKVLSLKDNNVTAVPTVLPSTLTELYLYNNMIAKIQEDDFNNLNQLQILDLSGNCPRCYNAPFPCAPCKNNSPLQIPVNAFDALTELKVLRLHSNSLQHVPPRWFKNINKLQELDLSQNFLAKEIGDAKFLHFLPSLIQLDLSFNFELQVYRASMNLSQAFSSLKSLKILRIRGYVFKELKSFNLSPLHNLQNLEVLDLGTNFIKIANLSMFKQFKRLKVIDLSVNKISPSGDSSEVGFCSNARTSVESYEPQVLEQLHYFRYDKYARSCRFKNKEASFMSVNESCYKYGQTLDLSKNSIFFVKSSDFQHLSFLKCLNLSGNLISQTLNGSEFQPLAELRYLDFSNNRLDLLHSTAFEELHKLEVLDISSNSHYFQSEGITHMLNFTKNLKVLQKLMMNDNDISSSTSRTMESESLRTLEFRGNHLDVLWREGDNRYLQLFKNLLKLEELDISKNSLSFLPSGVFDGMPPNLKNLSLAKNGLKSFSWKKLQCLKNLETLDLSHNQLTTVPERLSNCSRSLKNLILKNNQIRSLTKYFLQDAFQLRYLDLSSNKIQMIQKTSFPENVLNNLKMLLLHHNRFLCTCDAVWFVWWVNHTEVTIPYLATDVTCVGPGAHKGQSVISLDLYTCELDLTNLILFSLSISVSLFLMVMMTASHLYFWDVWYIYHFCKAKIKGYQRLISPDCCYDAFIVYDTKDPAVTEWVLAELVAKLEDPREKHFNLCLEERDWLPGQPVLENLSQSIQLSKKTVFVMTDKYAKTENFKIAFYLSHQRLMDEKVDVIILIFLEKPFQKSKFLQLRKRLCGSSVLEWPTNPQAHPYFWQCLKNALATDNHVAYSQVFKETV
Procedure: as §1, with “HEK-Blue™ hTLR7” for “HEK-Blue™ hTLR8”, “12. %-well” for “12. 96-well”
as §2, with “hTLR7” for “hTLR8”, “7 (TLR7)” for “8 (TLR8)”, “TLR7” for “TLR8”
as §3, with “10” for “60”
as §4, with “HEK-Blue™ hTLR7” for “HEK-Blue™ hTLR8”, “to 70%-80%” for “to 70%-8%”, “to 4.8-10′/mL” for “to 4.8×10^5/mL”, “was 1” for “was 6”, “min. Then the” for “min. The”
Inhibition curves were plotted using Graphpad Prism software according to the concentrations of the compounds and the corresponding inhibition rates, and the concentrations of the compounds at which the inhibition rate reached 50%, i.e., IC50 values, were calculated and are shown in Table 1.

Row | pIC50 (human TLR8) | pIC50 (human TLR7) | Structure (SMILES)
1 | 7.98 | – | Cc1cc(-c2[nH]c3cc4c(nc3c2C2CCOCC2)CNCC4)cc(C)n1 [Example 6, 2-(2,6-Dimethylpyridin-4-yl)-3-(tetrahydro-2H-pyran-4-yl)-5,6,7,8-tetrahydro-1H-pyrrolo[3,2-b][1,7]naphthyridine]
2 | – | 7.83 | Cc1cc(-c2[nH]c3cc4c(nc3c2C(C)C)CC(NC2CCOC2)CC4)cc(C)n1 (centres unmarked) [Example 3, 2-(2,6-Dimethylpyridin-4-yl)-3-isopropyl-N-(tetrahydrofuran-3-yl)-5,6,7,8-tetrahydro-1H-pyrrolo[3,2-b]quinolin-6-amine]
